ChEMBL document CHEMBL1201862, “PubChem BioAssay data set” (2004)
Active and inactive are the calls of the source.

Legend:
Escherichia coli [1] = assay: microbe, parasite or virus in culture
HEK293 [2] = assay: cells; details: Homo sapiens
Tumor necrosis factor = Tumor necrosis factor (Homo sapiens, UniProt P01375); assay: TNFa-triggered NF-kB activation inhibitors, SAR follow-up, cell-based, revised (AID 2337); type: functional
[3] = molecular target: Nucleotide-binding oligomerization domain-containing protein 1 (Homo sapiens, UniProt Q9Y239); assay: NOD1 signaling inhibitors, SAR follow-up, revised (AID 2333); type: functional
[4] = off-target signal loss in HeLa-CEM21 co-culture – HeLa F-luc CTL cells, cherry-picked, counter-screen for HIV-1 Env fusion inhibitor project, dose response (AID 652040); type: functional, cell-based;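 note: potency for signal decrease marking cytotoxic or nonspecific inhibition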
[5] = molecular target: Disintegrin and metalloproteinase domain-containing protein 17 (Homo sapiens, UniProt P78536); assay: ADAM17 protease inhibitors, dose response, counter-screen for ADAM10 exosite inhibitor project, biochemical, quenched FRET substrate (AID 743253)
Disintegrin and metalloproteinase domain-containing protein 17, sequence (P78536 whole entry, the tested form may be a part): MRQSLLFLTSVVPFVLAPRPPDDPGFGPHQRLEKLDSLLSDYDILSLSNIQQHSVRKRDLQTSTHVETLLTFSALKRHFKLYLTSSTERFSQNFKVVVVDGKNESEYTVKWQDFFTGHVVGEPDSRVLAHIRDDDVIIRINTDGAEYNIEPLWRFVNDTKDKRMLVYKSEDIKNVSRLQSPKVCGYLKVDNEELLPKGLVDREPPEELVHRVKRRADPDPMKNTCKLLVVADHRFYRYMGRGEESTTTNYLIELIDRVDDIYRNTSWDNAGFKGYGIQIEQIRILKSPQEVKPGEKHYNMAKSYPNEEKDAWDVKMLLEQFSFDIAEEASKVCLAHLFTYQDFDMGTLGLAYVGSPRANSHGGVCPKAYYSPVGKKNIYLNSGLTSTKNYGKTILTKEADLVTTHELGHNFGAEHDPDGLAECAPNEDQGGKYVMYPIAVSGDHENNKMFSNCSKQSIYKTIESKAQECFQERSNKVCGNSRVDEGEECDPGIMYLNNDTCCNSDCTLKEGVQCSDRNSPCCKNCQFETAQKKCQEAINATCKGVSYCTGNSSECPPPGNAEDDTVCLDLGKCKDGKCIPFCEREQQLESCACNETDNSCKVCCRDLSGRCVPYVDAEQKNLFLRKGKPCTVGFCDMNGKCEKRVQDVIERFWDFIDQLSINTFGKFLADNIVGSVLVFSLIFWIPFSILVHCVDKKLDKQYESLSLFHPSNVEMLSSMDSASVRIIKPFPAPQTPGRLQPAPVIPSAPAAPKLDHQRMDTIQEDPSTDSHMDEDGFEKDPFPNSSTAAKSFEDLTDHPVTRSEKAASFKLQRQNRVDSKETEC

[6] = inhibitors of clade B AD8 Env fusion, dose response, cell-based, cherry-pick (AID 652062); type: functional;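 note: luciferase signal from cell-cell fusion driven by HIV-1 clade B AD8 Env; potency is for inhibitors of fusion seen as a drop in luminescence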
INS1 = assay: beta cell apoptosis inhibitors, cytokine rescue, dose response, luminescence, retest (AID 449756); type: functional, cell-based; details: Rattus norvegicus;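 note: cell death triggered by IL-1 beta plus TNF-alpha plus IFN-gamma mixture; protective hits raise ATP signal compared with cytokine alone wells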
[7] = CEM21 lymphoblast cell cytotoxicity, dose response, cytotoxicity control for viral fusion inhibitor project, CellTiter-Glo luminescence, cherry-picked (AID 652042); type: functional, cell-based;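 note: potency for signal decrease meaning cytotoxicity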
CAAX prenyl protease 2 = CAAX prenyl protease 2 (Homo sapiens, UniProt Q9Y256); assay: human Rce1 protease inhibitors, dose response, biochemical, yeast membranes, quenched-peptide fluorescence, cherry-pick (AID 588849)
CAAX prenyl protease 2, sequence (Q9Y256 whole entry, the tested form may be a part): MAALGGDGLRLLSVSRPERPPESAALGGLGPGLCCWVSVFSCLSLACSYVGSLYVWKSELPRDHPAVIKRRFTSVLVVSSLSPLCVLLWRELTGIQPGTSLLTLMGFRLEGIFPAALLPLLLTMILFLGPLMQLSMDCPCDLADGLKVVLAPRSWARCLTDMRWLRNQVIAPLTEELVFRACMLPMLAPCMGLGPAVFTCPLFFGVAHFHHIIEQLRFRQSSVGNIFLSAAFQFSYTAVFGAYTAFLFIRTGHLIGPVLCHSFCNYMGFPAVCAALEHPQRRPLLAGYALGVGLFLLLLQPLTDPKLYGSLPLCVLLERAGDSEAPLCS

[8] = inhibitors of HIV Env-driven cell fusion, dose response, cherry-pick (AID 652057); type: functional, cell-based
[9] = ZM109 Env clade C HIV-1 fusion inhibitors, dose response, HeLa effector, CEM target cells, luciferase, cherry-pick (AID 652058); type: functional, cell-based
[10] = ADAM10 inhibitors, peptide cleavage, dose response, biochemical, QFRET (AID 743254);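 note: ADAM10 enzyme with the DM2 quenched FRET peptide as substrate; EDANS fluorescence gain as the protease cuts the substrate; inhibitor potency against ADAM10 proteolytic activity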
Escherichia coli [11] = assay: microbe, parasite or virus in culture; remark: listed apart in the source
[12] = molecular target: T1, Tyrosine-protein phosphatase non-receptor type 7 (Homo sapiens, UniProt P35236); type: functional
T1 sequence (P35236 whole entry): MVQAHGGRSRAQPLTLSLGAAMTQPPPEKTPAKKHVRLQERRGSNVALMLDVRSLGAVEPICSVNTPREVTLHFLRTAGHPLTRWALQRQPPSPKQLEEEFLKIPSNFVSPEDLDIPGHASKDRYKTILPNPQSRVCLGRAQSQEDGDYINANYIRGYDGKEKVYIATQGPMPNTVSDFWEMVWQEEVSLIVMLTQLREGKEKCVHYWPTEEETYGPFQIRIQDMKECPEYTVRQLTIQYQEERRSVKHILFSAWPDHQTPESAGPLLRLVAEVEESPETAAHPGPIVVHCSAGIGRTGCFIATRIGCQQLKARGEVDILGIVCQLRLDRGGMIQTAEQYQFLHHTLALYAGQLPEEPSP

[13] = molecular target: T2, Dual specificity protein phosphatase 6 (Rattus norvegicus, UniProt Q64346); type: functional
T2 sequence (Q64346 whole entry): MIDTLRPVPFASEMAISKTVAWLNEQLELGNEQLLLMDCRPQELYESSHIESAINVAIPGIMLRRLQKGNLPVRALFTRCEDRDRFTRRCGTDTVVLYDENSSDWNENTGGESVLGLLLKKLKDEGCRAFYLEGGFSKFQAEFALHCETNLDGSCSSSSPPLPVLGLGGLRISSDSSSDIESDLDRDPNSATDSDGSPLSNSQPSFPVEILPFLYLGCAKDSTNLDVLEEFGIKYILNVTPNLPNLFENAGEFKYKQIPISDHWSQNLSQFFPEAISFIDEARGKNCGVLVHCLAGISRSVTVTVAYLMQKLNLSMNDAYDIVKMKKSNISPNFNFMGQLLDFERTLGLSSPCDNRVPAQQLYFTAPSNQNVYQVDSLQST

[14] = molecular target: Glyceraldehyde-3-phosphate dehydrogenase (Homo sapiens, UniProt P04406)
Glyceraldehyde-3-phosphate dehydrogenase, sequence (P04406 whole entry): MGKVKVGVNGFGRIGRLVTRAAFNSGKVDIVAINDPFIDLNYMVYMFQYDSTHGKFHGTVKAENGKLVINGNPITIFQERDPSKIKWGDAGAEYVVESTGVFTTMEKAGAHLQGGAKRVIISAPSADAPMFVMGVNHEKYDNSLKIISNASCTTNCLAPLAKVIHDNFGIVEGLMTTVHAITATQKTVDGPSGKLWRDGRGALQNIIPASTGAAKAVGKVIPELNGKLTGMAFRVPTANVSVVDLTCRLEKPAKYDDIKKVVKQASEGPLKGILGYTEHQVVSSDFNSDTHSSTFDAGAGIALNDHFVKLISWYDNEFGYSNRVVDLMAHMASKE

[15] = molecular target: T2, Dual specificity protein phosphatase 6
cells [16] = type: functional, cell-based
[17] = Counterscreen for AddAB inhibitors: absorbance-based bacterial cell-based high throughput dose response assay for inhibitors of bacterial viability. [Related pubchem assays (depositor defined):AID435030, AID449728, AID449731, AID488942, AID488955, AID488956]; type: functional
[18] = molecular target: Nucleotide-binding oligomerization domain-containing protein 2 (Homo sapiens, UniProt Q9HC29); assay: NOD2 signaling inhibitors, cell-based, luminescence, uHTS, HEK293 (AID 1566); type: functional
[19] = Luminescence-based dose response cell-based high throughput screening assay for cytotoxic compounds using the IEC-6 intestinal epithelial cell line. [Related pubchem assays: 1858 (Summary AID.), 1825 (Counterscreen.), 1907 (Confirmation screen.)]; type: functional
Exodeoxyribonuclease V = Exodeoxyribonuclease V (Escherichia coli (strain K12), UniProt P04993+P07648+P08394); assay: E. coli RecBCD inhibitors, dose response, counter-screen for AddAB inhibitor project, absorbance, V66 E. coli, mutant T4 phage (AID 492957); type: functional, cell-based, Escherichia coli str. K-12 substr. MG1655
Exodeoxyribonuclease V, sequence (P04993 whole entry): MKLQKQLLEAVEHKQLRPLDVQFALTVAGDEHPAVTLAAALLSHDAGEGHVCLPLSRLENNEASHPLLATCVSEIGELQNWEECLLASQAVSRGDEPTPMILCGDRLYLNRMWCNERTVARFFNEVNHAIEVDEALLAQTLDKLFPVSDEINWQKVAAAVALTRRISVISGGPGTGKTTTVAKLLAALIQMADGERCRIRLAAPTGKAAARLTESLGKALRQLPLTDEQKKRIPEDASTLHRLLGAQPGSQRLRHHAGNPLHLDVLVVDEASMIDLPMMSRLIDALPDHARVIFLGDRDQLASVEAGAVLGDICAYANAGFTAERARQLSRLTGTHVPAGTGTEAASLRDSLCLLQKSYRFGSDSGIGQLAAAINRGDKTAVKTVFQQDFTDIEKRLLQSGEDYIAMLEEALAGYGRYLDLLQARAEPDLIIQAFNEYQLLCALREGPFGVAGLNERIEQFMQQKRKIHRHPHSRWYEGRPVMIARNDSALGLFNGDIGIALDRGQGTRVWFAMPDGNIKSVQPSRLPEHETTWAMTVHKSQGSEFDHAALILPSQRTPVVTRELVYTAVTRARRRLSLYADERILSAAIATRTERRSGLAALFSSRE
Exodeoxyribonuclease V, sequence (P07648 whole entry): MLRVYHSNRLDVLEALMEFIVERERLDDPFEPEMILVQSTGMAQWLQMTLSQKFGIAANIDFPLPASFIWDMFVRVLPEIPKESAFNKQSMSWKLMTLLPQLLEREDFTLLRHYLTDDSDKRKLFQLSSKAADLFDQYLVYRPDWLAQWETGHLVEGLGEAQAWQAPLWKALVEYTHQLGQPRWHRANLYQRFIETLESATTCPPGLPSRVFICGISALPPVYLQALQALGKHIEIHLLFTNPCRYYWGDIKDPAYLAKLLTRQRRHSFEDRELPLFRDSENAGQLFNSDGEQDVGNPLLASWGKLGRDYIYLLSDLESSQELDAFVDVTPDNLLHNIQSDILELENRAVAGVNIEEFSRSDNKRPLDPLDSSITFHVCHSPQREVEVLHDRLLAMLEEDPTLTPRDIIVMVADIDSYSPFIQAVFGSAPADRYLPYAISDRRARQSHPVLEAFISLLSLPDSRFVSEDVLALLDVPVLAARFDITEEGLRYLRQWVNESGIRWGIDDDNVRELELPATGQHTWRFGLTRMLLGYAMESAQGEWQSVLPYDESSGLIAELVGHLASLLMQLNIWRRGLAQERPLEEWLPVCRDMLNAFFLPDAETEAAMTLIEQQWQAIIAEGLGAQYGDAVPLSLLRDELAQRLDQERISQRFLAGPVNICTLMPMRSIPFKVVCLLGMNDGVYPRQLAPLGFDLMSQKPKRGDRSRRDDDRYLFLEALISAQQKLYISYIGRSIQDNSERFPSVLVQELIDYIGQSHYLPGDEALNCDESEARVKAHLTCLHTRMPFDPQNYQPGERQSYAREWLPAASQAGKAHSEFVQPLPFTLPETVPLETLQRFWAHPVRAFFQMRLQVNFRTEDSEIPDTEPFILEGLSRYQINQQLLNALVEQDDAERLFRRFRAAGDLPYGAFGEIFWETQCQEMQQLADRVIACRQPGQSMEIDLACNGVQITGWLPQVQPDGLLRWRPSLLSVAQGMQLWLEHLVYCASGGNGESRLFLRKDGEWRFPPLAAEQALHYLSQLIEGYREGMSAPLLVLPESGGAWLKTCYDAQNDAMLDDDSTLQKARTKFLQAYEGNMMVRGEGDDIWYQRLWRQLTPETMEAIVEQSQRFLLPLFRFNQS
Exodeoxyribonuclease V, sequence (P08394 whole entry): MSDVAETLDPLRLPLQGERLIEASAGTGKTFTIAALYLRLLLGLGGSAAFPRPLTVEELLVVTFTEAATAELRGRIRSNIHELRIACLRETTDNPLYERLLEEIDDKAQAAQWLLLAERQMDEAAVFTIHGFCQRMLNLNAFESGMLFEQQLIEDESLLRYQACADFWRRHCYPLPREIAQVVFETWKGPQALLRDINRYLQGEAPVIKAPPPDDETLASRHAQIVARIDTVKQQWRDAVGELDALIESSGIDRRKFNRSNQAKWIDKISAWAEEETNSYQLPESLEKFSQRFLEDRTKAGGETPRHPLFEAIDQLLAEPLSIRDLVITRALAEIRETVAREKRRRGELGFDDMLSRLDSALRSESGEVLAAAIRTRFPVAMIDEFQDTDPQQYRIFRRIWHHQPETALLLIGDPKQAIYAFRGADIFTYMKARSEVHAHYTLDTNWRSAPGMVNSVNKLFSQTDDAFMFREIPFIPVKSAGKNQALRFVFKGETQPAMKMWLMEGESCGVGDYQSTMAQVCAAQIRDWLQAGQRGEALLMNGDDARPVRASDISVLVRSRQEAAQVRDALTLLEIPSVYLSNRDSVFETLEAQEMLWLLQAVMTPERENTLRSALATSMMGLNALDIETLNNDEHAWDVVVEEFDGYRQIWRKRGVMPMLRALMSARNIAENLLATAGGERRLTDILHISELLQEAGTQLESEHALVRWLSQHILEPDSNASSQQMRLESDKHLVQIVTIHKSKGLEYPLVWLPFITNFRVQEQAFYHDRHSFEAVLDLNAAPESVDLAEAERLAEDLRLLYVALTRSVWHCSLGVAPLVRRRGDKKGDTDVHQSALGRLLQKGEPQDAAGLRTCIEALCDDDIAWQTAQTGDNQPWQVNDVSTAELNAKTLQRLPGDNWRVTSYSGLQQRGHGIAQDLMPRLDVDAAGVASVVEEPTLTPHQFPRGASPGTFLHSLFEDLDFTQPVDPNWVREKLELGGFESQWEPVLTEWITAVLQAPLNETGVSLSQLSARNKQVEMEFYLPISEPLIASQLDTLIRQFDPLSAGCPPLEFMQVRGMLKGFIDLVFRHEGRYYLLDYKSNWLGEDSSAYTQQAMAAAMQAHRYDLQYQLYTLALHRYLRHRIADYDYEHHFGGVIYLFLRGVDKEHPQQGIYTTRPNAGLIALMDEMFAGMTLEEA

[20] = system: Streptococcus sp. 'group A'; assay: growth inhibition of control SK(-) GAS strain, dose response, counter-screen for streptokinase expression inhibitor project, luminescence, kanamycin, BacTiterGlo, confirmation (AID 1900); type: functional, organism-based
[21] = molecular target: Heat shock protein HSP 90-alpha (Homo sapiens, UniProt P07900); type: functional, organism-based
cells [22] = type: functional, cell-based; remark: listed apart in the source
Streptokinase A = molecular target: T3, Streptokinase A (Streptococcus pyogenes serotype M1, UniProt P10520); assay: S. pyogenes streptokinase expression inhibitors, potency, dose response, plasminogen activation absorbance, OD405 (AID 1914); type: functional, Streptococcus pyogenes M1 GAS;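 note: secreted streptokinase activity via plasminogen activation per viability signal from cell pellet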
T3 sequence (P10520 whole entry): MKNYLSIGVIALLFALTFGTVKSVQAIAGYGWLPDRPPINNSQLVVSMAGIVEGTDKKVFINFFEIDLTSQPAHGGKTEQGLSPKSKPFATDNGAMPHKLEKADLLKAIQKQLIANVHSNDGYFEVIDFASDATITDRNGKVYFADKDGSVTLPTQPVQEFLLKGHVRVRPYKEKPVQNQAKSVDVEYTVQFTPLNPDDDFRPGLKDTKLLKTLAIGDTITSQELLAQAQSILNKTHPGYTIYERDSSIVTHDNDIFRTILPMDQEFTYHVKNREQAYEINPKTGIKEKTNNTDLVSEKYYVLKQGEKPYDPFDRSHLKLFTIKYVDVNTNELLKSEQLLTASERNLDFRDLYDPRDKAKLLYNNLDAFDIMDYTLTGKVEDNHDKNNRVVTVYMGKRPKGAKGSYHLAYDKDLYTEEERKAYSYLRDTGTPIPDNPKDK

[23] = inhibitors of firefly luciferase expression or activity, dose response, H4 neuroglioma cells, luminescence (AID 1990); type: functional, cell-based
[24] = inhibitors of SNCA 5'UTR-driven reporter translation, confirmation, H4 neuroglioma cells, luminescence (AID 1988); type: functional, cell-based
[25] = NIH-3T3 fibroblast cytotoxicity, dose response, cytotoxicity control, cell-based, fluorescence, Alamar Blue, secondary assay (AID 2327); type: functional;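 note: NIH-3T3 mouse fibroblasts cultured with fluconazole at 8 µg/mL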
[26] = Luminescence Cell-Based Dose Response HTS to Identify Inhibitors of 5'UTR Stem-Loop Driven Prion Protein mRNA Translation in H4 Neuroglioblastoma Cells. [Related pubchem assays: 1827 (Project Summary), 1813 (Primary HTS)]; type: functional
HEK293 [27] = assay: cells; type: functional, cell-based; details: Homo sapiens
BJ [28] = assay: cytotoxicity toward Ras-transformed BJeLR fibroblasts, dose response, cell-based, alamar blue fluorescence, cherrypicked samples (AID 2631); type: functional; details: Homo sapiens;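 note: confirmatory dose-response assay in RAS-dependent BJ fibroblasts engineered with TERT, LT and ST, with cytotoxicity read by fluorescence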
BJ [29] = assay: cells; type: functional, cell-based; details: Homo sapiens
BJ [30] = assay: cytotoxicity toward BJ-TERT fibroblasts, dose response, cell-based, RAS-independent, luminescence (AID 1933); type: functional; details: Homo sapiens
[31] = cytotoxicity toward DRD oncogenic fibroblasts, dose response, cell-based, non-viral oncogenic, luminescence (AID 1934); type: functional; details: Homo sapiens
[32] = C. albicans growth with fluconazole, confirmation, fluorescence, retest (AID 2467); type: functional, cell-based
[33] = molecular target: T4, Heat shock factor protein 1 (Mus musculus, UniProt P38532); assay: inhibition of MG132-induced HSE-luciferase signal, confirmation, cell-based, NIH3T3, luminescence, dose retest (AID 2382); type: functional;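 note: NIH3T3 fibroblasts with HSF1-driven luciferase reporter stressed by proteasome inhibitor MG132; luminescence from HSF1-driven luciferase expression after 8 hours of MG132 stress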
T4 sequence (P38532 whole entry): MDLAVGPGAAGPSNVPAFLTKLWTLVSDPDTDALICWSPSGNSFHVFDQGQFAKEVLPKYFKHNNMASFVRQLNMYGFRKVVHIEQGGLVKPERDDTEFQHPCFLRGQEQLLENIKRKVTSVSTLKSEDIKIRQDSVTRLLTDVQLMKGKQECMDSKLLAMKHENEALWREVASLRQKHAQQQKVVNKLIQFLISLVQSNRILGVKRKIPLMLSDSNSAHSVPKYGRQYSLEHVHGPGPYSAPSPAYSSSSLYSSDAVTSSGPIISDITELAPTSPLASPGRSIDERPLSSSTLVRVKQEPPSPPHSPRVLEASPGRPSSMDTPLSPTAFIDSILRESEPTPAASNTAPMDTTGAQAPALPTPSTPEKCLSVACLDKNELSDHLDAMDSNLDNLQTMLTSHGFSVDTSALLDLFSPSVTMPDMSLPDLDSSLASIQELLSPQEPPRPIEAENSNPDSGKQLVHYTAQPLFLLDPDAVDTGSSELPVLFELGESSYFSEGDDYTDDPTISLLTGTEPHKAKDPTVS

Streptococcus = assay: Group A Streptococcus viability loss, dose response, counter-screen for streptokinase expression inhibitor project, luminescence, BacTiterGlo (AID 1915); type: functional, organism-based;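 note: potency for reduction of bacterial viability or growth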
BJ [34] = assay: cytotoxicity toward BJ-TERT-LT-ST fibroblasts, dose response, cell-based, RAS-independent, luminescence (AID 1935); type: functional; details: Homo sapiens;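 note: BJ fibroblasts immortalized with TERT plus LT and ST oncogenes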
HEK293 [35] = assay: cells; type: functional, cell-based; details: Homo sapiens; remark: listed apart in the source
HEK293 [36] = assay: NOD1 signaling inhibitors, primary screen, cell-based, luminescence, uHTS (AID 1578); type: functional; details: Homo sapiens
HEK293 [37] = assay: NOD2 signaling inhibitors in MDP-stimulated cells, cell-based, uHTS, luminescence (AID 2001); type: functional; details: Homo sapiens
[38] = cytotoxicity in HEK-293T NF-kB-Luc cells, dose response, cytotoxicity control for B/T-cell NF-kB inhibitor project, cell-based, uHTS hits (AID 489019); type: functional;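 note: IC50 reflects cytotoxicity as loss of cell viability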
cells [39] = type: functional, cell-based; details: HEK-CNG
Jurkat = assay: antigen receptor-induced NF-kB inhibitors, dose response, Jurkat, luciferase reporter, luminescence, B- and T-cell (AID 489004); type: functional, cell-based; details: Homo sapiens;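 note: NF-kB luciferase reporter Jurkat cells stimulated with PMA plus ionomycin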
Galanin receptor type 3 = Galanin receptor type 3 (Homo sapiens, UniProt O60755); assay: Fluorescence-based cell-based primary high throughput dose response assay to identify antagonists of the Galanin Receptor 3 (GalR3).; type: functional
Galanin receptor type 3, sequence (O60755 whole entry): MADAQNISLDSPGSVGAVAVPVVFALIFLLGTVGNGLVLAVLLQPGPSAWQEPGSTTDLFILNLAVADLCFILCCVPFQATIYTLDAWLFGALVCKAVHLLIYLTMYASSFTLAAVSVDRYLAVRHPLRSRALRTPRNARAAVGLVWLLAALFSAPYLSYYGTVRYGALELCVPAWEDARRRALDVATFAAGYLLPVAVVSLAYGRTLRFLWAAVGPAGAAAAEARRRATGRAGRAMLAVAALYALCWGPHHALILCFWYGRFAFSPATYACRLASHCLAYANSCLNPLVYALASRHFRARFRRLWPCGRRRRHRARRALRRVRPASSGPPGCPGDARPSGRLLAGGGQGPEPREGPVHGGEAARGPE

Tumor necrosis factor, sequence (P01375 whole entry, the tested form may be a part): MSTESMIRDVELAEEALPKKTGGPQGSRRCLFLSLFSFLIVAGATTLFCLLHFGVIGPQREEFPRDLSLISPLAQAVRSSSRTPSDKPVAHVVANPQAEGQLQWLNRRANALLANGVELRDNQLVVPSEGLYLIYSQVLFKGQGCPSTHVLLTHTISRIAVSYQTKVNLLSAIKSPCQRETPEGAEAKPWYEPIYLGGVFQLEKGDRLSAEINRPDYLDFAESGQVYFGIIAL

CO[C@H]1/C=C\O[C@@]2(C)Oc3c(C)c(O)c4c(O)c(c5c(c4c3C2=O)=NC2(CCN(CC(C)C)CC2)N=5)NC(=O)/C(C)=C\C=C/[C@H](C)[C@H](O)[C@@H](C)[C@@H](O)[C@@H](C)[C@H](OC(C)=O)[C@@H]1C
AC50 (Escherichia coli [1]): 15.9 µM (active)

O=C(CSc1nc(O)c2c(-c3ccccc3)csc2n1)NC1CCCCC1
IC50 (HEK293 [2]): > 20 µM (inactive) | IC50 (Tumor necrosis factor): > 20 µM (inactive) | IC50 [3]: > 20 µM (inactive)

COc1ccccc1NC(=O)CN(c1ccc(C23CC4CC(CC(C4)C2)C3)cc1)S(C)(=O)=O
AC50 [4]: 8.12 µM (active) | IC50 [5]: > 69.5 µM (inactive) | AC50 [6]: 8.59 µM (active) | AC50 (INS1): 4.49 µM (active) | AC50 [7]: 47 µM (active) | AC50 (CAAX prenyl protease 2): 40.9 µM (active) | AC50 [8]: 4.53 µM (active) | AC50 [9]: 3.45 µM (active) | IC50 [10]: > 69.5 µM (inactive)

CCOC(=O)C(NC(C)=O)(Nc1ccc(F)cc1)C(F)(F)F (stereo not given)
AC50 (Escherichia coli [11]): 36.2 µM (active) | AC50 (Escherichia coli [1]): 74.8 µM (active)

Cn1ncc(Cl)c1C(=O)NCc1ccc(Cl)cc1
AC50 (Escherichia coli [11]): 22.7 µM (active)

COc1ccc(-n2c(=O)nc(NCCc3cccc(Cl)c3)[nH]c2=O)cc1
IC50 [12]: > 100 µM (not active) | IC50 [13]: > 100 µM (inactive) | IC50 [14]: > 100 µM (not active) | IC50 [15]: > 100 µM (inactive)

Cc1ccc(C(C)C)c(OCc2ccc(C(=O)N/N=C/c3cccc(O)c3O)cc2)c1
EC50 (cells [16]): > 350 µM (not active) | IC50 [17]: > 119 µM (inactive) | EC50 [18]: > 20 µM (inactive) | IC50 [19]: 1.67 µM (active) | IC50 (Exodeoxyribonuclease V): > 119 µM (inactive) | EC50 [20]: 1.87 µM (active) | AC50 [21]: 4.01 µM (active) | EC50 (cells [22]): 6.18 µM (active) | EC50 (Streptokinase A): > 150 µM (not active) | EC50 [23]: 0.54 µM (active) | EC50 [24]: 0.976 µM (active) | EC50 [25]: 3.17 µM (active) | EC50 [26]: 0.979 µM (active) | IC50 (HEK293 [27]): 1.16 µM (active) | AC50 (INS1): 0.832 µM (active) | EC50 (BJ [28]): 0.533 µM (active) | EC50 (BJ [29]): 2.58 µM (active) | EC50 (BJ [30]): 9.95 µM (active) | EC50 [31]: 4.88 µM (active) | EC50 [32]: 0.928 µM (active) | EC50 [33]: 1.24 µM (active) | EC50 (Streptococcus): 5.32 µM (active) | EC50 (BJ [34]): 7.23 µM (active) | IC50 (HEK293 [35]): > 20 µM (inactive) | EC50 (HEK293 [36]): > 20 µM (inactive) | IC50 (HEK293 [37]): > 20 µM (inactive)

COc1cc2c(cc1OC)[C@@H]1C(=O)c3ccc4c(c3O[C@@H]1CO2)C[C@H](C(C)C)O4
IC50 [38]: > 80 µM (inactive) | EC50 (cells [39]): > 29.9 µM (inactive) | IC50 (Jurkat): > 80 µM (inactive) | IC50 (Galanin receptor type 3): 0.0154 µM (active)
